Reference: patent publication US20090068290A1, “BIFEPRUNOX DOSES FOR TREATING SCHIZOPHRENIA” (priority 2006, published 2009)

Legend:
[1] = system: patients with chronic schizophrenia; test: PANSS total score, Clinical Study Four; format: in vivo, human; settings: FAS; for Change from Baseline in PANSS Total Score, Difference to PBO Mean / Adjusted Mean Change from Baseline in PANSS Total Score, Least Squares Estimates Mean / PANSS total, Adjusted Mean Change from Baseline (LS mean): ANCOVA; for PANSS total, Adjusted Mean Change from Baseline (LS mean): BX20 = 20 mg, BX30 = 30 mg
Protocol: METHODOLOGY: This study was a multinational, multicenter, randomized, double-blind, parallel-group, placebo-controlled, fixed-dose study. The study consisted of a 3- to 6-day antipsychotic-free run-in period, after which patients were randomised to 6 months of double-blind treatment with fixed doses of bifeprunox (20 mg/day (BX20) or 30 mg/day (BX30)) or placebo (PBO). Patients allocated to the BX groups were up-titrated from 0.25 mg/day over 7 days (BX20) or 8 days (BX30), and then continued on these doses for the remainder of the study. […] At predetermined time points, blood samples were obtained for drug concentration analysis of BX and its major metabolites (3′- and 4′-sulfate conjugates of BX), and pharmaco-economic assessments were performed.

[2] = Pooled metabolic analysis, 6-month study: glucose
Excerpt: OBJECTIVE: To examine the metabolic effects of bifeprunox in patients with acute and stable schizophrenia.
METHODS: Metabolic data was compiled from one 6-month and four 6-week studies (i.e., a treatment period) of bifeprunox in patients with stable and acute schizophrenia, respectively. In the 6-month study, patients received bifeprunox (n=331) or placebo (PBO) (n=166). […] Metabolic evaluations included body weight, body mass index (BMI), plasma glucose and lipid profiles. Fasting glucose and lipid values were assessed in one 6-week study and in the 6-month study. Triglyceride:HDL ratio (TG:HDL) was calculated as a marker of insulin resistance. No statistical analyses were performed; only descriptive statistics are presented.

[3] = Excretion of radioactivity after [14C]-labeled bifeprunox; settings: single oral dose of [14C]-labeled bifeprunox

O=c1[nH]c2cccc(N3CCN(Cc4cccc(-c5ccccc5)c4)CC3)c2o1 [Bifeprunox, 7-[4-([1,1′-biphenyl]-3-ylmethyl)-1-piperazinyl]-2(3H)-benzoxazolone]
Change from Baseline in PANSS Total Score, Difference to PBO Mean ([1]; Day 63, LOCF, listed as BX30): −4.68
Adjusted Mean Change from Baseline in PANSS Total Score, Least Squares Estimates Mean ([1]; Day 63, OC, listed as BX20): −12.85
Change from Baseline in PANSS Total Score, Difference to PBO Mean ([1]; Day 63, OC, listed as BX20): −4.52
Adjusted Mean Change from Baseline in PANSS Total Score, Least Squares Estimates Mean ([1]; Day 63, OC, listed as BX30): −12.45
Change from Baseline in PANSS Total Score, Difference to PBO Mean ([1]; Day 63, OC, listed as BX30): −4.12
Adjusted Mean Change from Baseline in PANSS Total Score, Least Squares Estimates Mean ([1]; Day 63, POCF, listed as BX20): −10.03
Change from Baseline in PANSS Total Score, Difference to PBO Mean ([1]; Day 63, POCF, listed as BX20): −4.83
Adjusted Mean Change from Baseline in PANSS Total Score, Least Squares Estimates Mean ([1]; Day 63, POCF, listed as BX30): −8.97
Change from Baseline in PANSS Total Score, Difference to PBO Mean ([1]; Day 63, POCF, listed as BX30): −3.77
Adjusted Mean Change from Baseline in PANSS Total Score, Least Squares Estimates Mean ([1]; Day 90, LOCF, listed as BX20): −2.18
Change from Baseline in PANSS Total Score, Difference to PBO Mean ([1]; Day 90, LOCF, listed as BX20): −5.85
Adjusted Mean Change from Baseline in PANSS Total Score, Least Squares Estimates Mean ([1]; Day 90, LOCF, listed as BX30): −1.47
Change from Baseline in PANSS Total Score, Difference to PBO Mean ([1]; Day 90, LOCF, listed as BX30): −5.14
Adjusted Mean Change from Baseline in PANSS Total Score, Least Squares Estimates Mean ([1]; Day 90, OC, listed as BX20): −14.17
Change from Baseline in PANSS Total Score, Difference to PBO Mean ([1]; Day 90, OC, listed as BX20): −4.92
Adjusted Mean Change from Baseline in PANSS Total Score, Least Squares Estimates Mean ([1]; Day 90, OC, listed as BX30): −12.71
Change from Baseline in PANSS Total Score, Difference to PBO Mean ([1]; Day 90, OC, listed as BX30): −3.46
Adjusted Mean Change from Baseline in PANSS Total Score, Least Squares Estimates Mean ([1]; Day 90, POCF, listed as BX20): −10.43
Change from Baseline in PANSS Total Score, Difference to PBO Mean ([1]; Day 90, POCF, listed as BX20): −5.19
Adjusted Mean Change from Baseline in PANSS Total Score, Least Squares Estimates Mean ([1]; Day 90, POCF, listed as BX30): −9.25
Change from Baseline in PANSS Total Score, Difference to PBO Mean ([1]; Day 90, POCF, listed as BX30): −4.00
Adjusted Mean Change from Baseline in PANSS Total Score, Least Squares Estimates Mean ([1]; Day 120, LOCF, listed as BX20): −1.20
Change from Baseline in PANSS Total Score, Difference to PBO Mean ([1]; Day 120, LOCF, listed as BX20): −6.50
Adjusted Mean Change from Baseline in PANSS Total Score, Least Squares Estimates Mean ([1]; Day 120, LOCF, listed as BX30): −0.84
Change from Baseline in PANSS Total Score, Difference to PBO Mean ([1]; Day 120, LOCF, listed as BX30): −6.14
Adjusted Mean Change from Baseline in PANSS Total Score, Least Squares Estimates Mean ([1]; Day 120, OC, listed as BX20): −15.81
Change from Baseline in PANSS Total Score, Difference to PBO Mean ([1]; Day 120, OC, listed as BX20): −5.45
Adjusted Mean Change from Baseline in PANSS Total Score, Least Squares Estimates Mean ([1]; Day 120, OC, listed as BX30): −14.56
Change from Baseline in PANSS Total Score, Difference to PBO Mean ([1]; Day 120, OC, listed as BX30): −4.19
Adjusted Mean Change from Baseline in PANSS Total Score, Least Squares Estimates Mean ([1]; Day 120, POCF, listed as BX20): −10.30
Change from Baseline in PANSS Total Score, Difference to PBO Mean ([1]; Day 120, POCF, listed as BX20): −5.21
Adjusted Mean Change from Baseline in PANSS Total Score, Least Squares Estimates Mean ([1]; Day 120, POCF, listed as BX30): −9.68
Change from Baseline in PANSS Total Score, Difference to PBO Mean ([1]; Day 120, POCF, listed as BX30): −4.59
Adjusted Mean Change from Baseline in PANSS Total Score, Least Squares Estimates Mean ([1]; Day 150, LOCF, listed as BX20): −0.56
Change from Baseline in PANSS Total Score, Difference to PBO Mean ([1]; Day 150, LOCF, listed as BX20): −7.04
Adjusted Mean Change from Baseline in PANSS Total Score, Least Squares Estimates Mean ([1]; Day 150, LOCF, listed as BX30): −0.31
Change from Baseline in PANSS Total Score, Difference to PBO Mean ([1]; Day 150, LOCF, listed as BX30): −6.80
Adjusted Mean Change from Baseline in PANSS Total Score, Least Squares Estimates Mean ([1]; Day 150, OC, listed as BX20): −16.36
Change from Baseline in PANSS Total Score, Difference to PBO Mean ([1]; Day 150, OC, listed as BX20): −1.97
Adjusted Mean Change from Baseline in PANSS Total Score, Least Squares Estimates Mean ([1]; Day 150, OC, listed as BX30): −15.93
Change from Baseline in PANSS Total Score, Difference to PBO Mean ([1]; Day 150, OC, listed as BX30): −1.54
Adjusted Mean Change from Baseline in PANSS Total Score, Least Squares Estimates Mean ([1]; Day 150, POCF, listed as BX20): −10.40
Change from Baseline in PANSS Total Score, Difference to PBO Mean ([1]; Day 150, POCF, listed as BX20): −5.20
Adjusted Mean Change from Baseline in PANSS Total Score, Least Squares Estimates Mean ([1]; Day 150, POCF, listed as BX30): −9.55
Change from Baseline in PANSS Total Score, Difference to PBO Mean ([1]; Day 150, POCF, listed as BX30): −4.35
Adjusted Mean Change from Baseline in PANSS Total Score, Least Squares Estimates Mean ([1]; Day 180, LOCF, listed as BX20): −0.81
Change from Baseline in PANSS Total Score, Difference to PBO Mean ([1]; Day 180, LOCF, listed as BX20): −7.91
Adjusted Mean Change from Baseline in PANSS Total Score, Least Squares Estimates Mean ([1]; Day 180, LOCF, listed as BX30): −0.44
Change from Baseline in PANSS Total Score, Difference to PBO Mean ([1]; Day 180, LOCF, listed as BX30): −7.54
Adjusted Mean Change from Baseline in PANSS Total Score, Least Squares Estimates Mean ([1]; Day 180, OC, listed as BX20): −18.09
Change from Baseline in PANSS Total Score, Difference to PBO Mean ([1]; Day 180, OC, listed as BX20): −3.60
Adjusted Mean Change from Baseline in PANSS Total Score, Least Squares Estimates Mean ([1]; Day 180, OC, listed as BX30): −18.58
Change from Baseline in PANSS Total Score, Difference to PBO Mean ([1]; Day 180, OC, listed as BX30): −4.09
Adjusted Mean Change from Baseline in PANSS Total Score, Least Squares Estimates Mean ([1]; Day 180, POCF, listed as BX20): −10.84
Change from Baseline in PANSS Total Score, Difference to PBO Mean ([1]; Day 180, POCF, listed as BX20): −5.43
Adjusted Mean Change from Baseline in PANSS Total Score, Least Squares Estimates Mean ([1]; Day 180, POCF, listed as BX30): −9.92
Change from Baseline in PANSS Total Score, Difference to PBO Mean ([1]; Day 180, POCF, listed as BX30): −4.52
PANSS total, Adjusted Mean Change from Baseline (LS mean) ([1]; Month 6, LOCF, listed as BX20): −4.0
PANSS total, Adjusted Mean Change from Baseline (LS mean) ([1]; Month 6, LOCF, listed as BX30): −0.4
PANSS total, Adjusted Mean Change from Baseline (LS mean) ([1]; Week 6, LOCF, listed as BX20): −4.0
PANSS total, Adjusted Mean Change from Baseline (LS mean) ([1]; Week 6, LOCF, listed as BX30): −2.6
PANSS total scores versus PBO, LOCF analysis ([1]; both BX groups): statistically significantly superior to that in the PBO group from Week 6 onwards
change in mean fasting glucose at endpoint ([2]; 6-month study): +4.32 mg/dL
change in non-fasting glucose at endpoint ([2]; bifeprunox total group): +1.16 mg/dL
radioactivity excreted in the feces [3]: 74%
radioactivity excreted in the urine [3]: 13%
